Experimental findings from patent US20070099915A1, “INHIBITORS OF THE HIV INTEGRASE ENZYME” (PFIZER INC., priority 2005, published 2007) are described below.

In experiment [1] the target is T1, Full-length wild type HIV-1 integrase (SF1) (Human immunodeficiency virus type 1 group M subtype B, UniProt P04585).
T1 construct: made in house; host or cells: E. coli BL21 (DE3)
The experiment can be described thus: Integrase strand-transfer scintillation proximity assay. The class given is biochemical. From the text:
The annealed product represents preprocessed viral ds-DNA derived from the LTR U5 sequence of the viral genome. A ds-DNA control to test for non-specific interactions was made using a 3′ di-deoxy derivative of oligonucleotide #1 annealed to oligonucleotide #2. The CA overhang at the 5′ end of the non-biotinylated strand of the ds-DNA was created artificially by using a complimentary DNA oligonucleotide shortened by 2 base pairs. This configuration eliminates the requisite 3′ processing step of the integrase enzyme prior to the strand-transfer mechanism.
The annealed product had overhanging 3′ ends of poly(dA). […] The radiolabeled product was purified using a NENSORB cartridge and stored in stabilized aqueous solution (PerkinElmer).
Reagents: Streptavidin-coated polyvinyltoluene (PVT) SPA beads were purchased from Amersham Biosciences (Piscataway, N.J.). Cesium chloride was purchased from Shelton Scientific, Inc. (Shelton, Conn.). White, polystyrene, flat-bottom, non-binding surface, 96-well plates were purchased from Corning. All other buffer components were purchased from Sigma (St. Louis, Mo.) unless otherwise indicated.
Enzyme Construction: Full-length wild type HIV-1 integrase (SF1) sequence (amino acids 1-289) was constructed in a pET24a vector (Novagen, Madison, Wis.).
Enzyme Purification: Full length wild-type HIV Integrase was expressed in E. coli BL21 (DE3) cells and induced with 1 mM isopropyl-1 thio-β-D-galactopyranoside (IPTG) when cells reached an optical density between 0.8-1.0 at 600 nm. Cells were lysed by microfluidation in 50 mM HEPES pH 7.0, 75 mM NaCl, 5 mM DTT, 1 mM 4-(2-Aminoethyl)benzenesulfonylfluoride HCl (AEBSF). Lysate was then centrifuged 20 minutes at 11 k rpm in GSA rotor in Sorvall RC-5B at 4° C. Supernant was discarded and pellet resuspended in 50 mM HEPES pH 7.0, 750 mM NaCl, 5 mM DTT, 1 mM AEBSF and homogenized in a 40 mL Dounce homogenizer for 20 minutes on ice. Homogenate was then centrifuged 20 minutes at 11 k rpm in SS34 rotor in Sorvall RC-5B at 4° C. Supernant was discarded and pellet resuspended in 50 mM HEPES pH 7.0, 750 mM NaCl, 25 mM CHAPS, 5 mM DTT, 1 mM AEBSF. Preparation was then centrifuged 20 minutes at 11 k rpm in SS34 rotor in Sorvall RC-5B at 4° C.
Supernant was then diluted 1:1 with 50 mM HEPES pH 7.0, 25 mM CHAPS, 1 mM DTT, 1 mM AEBSF and loaded onto a Q-Sepharose column pre-equilibrated with 50 mM HEPES, pH 7.0, 375 mM NaCl, 25 mM CHAPS, 1 mM DTT, 1 mM AEBSF. The flow through peak was collected and NaCl diluted to 0.1 M with 50 mM HEPES pH 7.0, 25 mM CHAPS, 1 mM DTT, 0.5 mM AEBSF and loaded onto a SP-Sepharose column pre-equilibrated with 50 mM HEPES pH 7.0, 100 mM NaCl, 25 mM CHAPS, 1 mM DTT, 0.5 mM AEBSF. After washing the column with the equilibration buffer, a 100 to 400 mM NaCl gradient was run. The eluted integrase was concentrated and run on a S-300 gel diffusion column using 50 mM HEPES pH 7.0, 500 mM NaCl, 25 mM CHAPS, 1 mM DTT, 0.5 mM AEBSF. […] All columns were run in a 4° C. cold room.
Viral DNA Bead Preparation: Streptavidin-coated SPA beads were suspended to 20 mg/mL in 25 mM 3-morpholinopropanesulfonic acid (MOPS) (pH 7.2) and 1.0% NaN3. Biotinylated viral DNA was bound to the hydrated SPA beads in a batch process by combining […] of ds-DNA to 1 mg of suspended SPA beads (10 μL of 50 μM viral DNA to 1 mL of 20 mg/mL SPA beads). The mixture was incubated at 22° C. for a minimum of 20 min. with occasional mixing followed by centrifugation at 2500 rpm for 10 min.

Experiment [2] relates to HIV-1 RF virus in CEM-SS cells. Kind of experiment: HIV-1 cell protection assay (XTT dye reduction). The class given is cell-based. The protocol:
Six days later, 50 μl of XTT solution (1 mg/ml XTT tetrazolium and 20 nM phenazine methosulfate) were added to the wells and the plates were reincubated for four hours. Viability, as determined by the amount of XTT formazan produced, was quantified spectrophotometrically by absorbance at 450 nm.
Data from CPE assays were expressed as the percent of formazan produced in compound-treated cells compared to formazan produced in wells of uninfected, compound-free cells. […] The 50% cytotoxicity concentration (CC50) was calculated as the concentration of compound that decreased the percentage of formazan produced in uninfected, compound-treated cells to 50% of that produced in uninfected, compound-free cells. The therapeutic index was calculated by dividing the cytotoxicity (CC50) by the antiviral activity (EC50).

The mark [3] stands for this setting: strand-transfer SPA, 246 nM integrase, 50 nM host DNA, 37° C., 50 min, read-out: IC50.
The mark [4] stands for this setting: Human immunodeficiency virus 1, 144 h, RF strain of HIV-1, CEM-SS cells, XTT read-out after six days, read-out: EC50.
Where [5] appears, read: Human immunodeficiency virus 1, CEM-SS, 144 h.

Structures are written as SMILES. Where a name gives a salt, the structure may show the parent alone. Read-outs that look alike come from different tables or passages of the source.

One may read the IC50 as the concentration needed to halve the response being measured. In general, EC50 refers to the concentration giving half of the maximal effect.

For `Cc1cc2c(ncc3c2c(CN2CCCC2)cn3Cc2ccc(F)cc2)c(=O)n1O` [Example 46, 3-(4-fluorobenzyl)-7-hydroxy-8-methyl-1-(pyrrolidin-1-ylmethyl)-3,7-dihydro-6H-pyrrolo[2,3-c]-1,7-naphthyridin-6-one], the IC50 in experiment [1] (setting [3]) worked out at 8.35 nM. For the same molecule, the EC50 in experiment [2] (setting [4]) came to 1.1 nM.

With `Cc1cc2c(ncc3c2c(CO)cn3Cc2ccc(F)cc2)c(=O)n1O` [Example 47, 3-(4-fluorobenzyl)-7-hydroxy-1-(hydroxymethyl)-8-methyl-3,7-dihydro-6H-pyrrolo[2,3-c]-1,7-naphthyridin-6-one], in experiment [1], 6 nM corresponded to half-maximal inhibition (IC50). The molecule also showed an EC50 in experiment [2] (setting [5]) of 0.39 nM.

Regarding `O=C1c2ncc3c(c(CNCc4ccc(F)c(F)c4)cn3Cc3ccc(F)cc3)c2CCN1O` [Example 48, 1-{[(3,4-difluorobenzyl)amino]methyl}-3-(4-fluorobenzyl)-7-hydroxy-3,7,8,9-tetrahydro-6H-pyrrolo[2,3-c]-1,7-naphthyridin-6-one], the IC50 in experiment [1] (setting [3]) stood at 16.8 nM. In addition, the concentration for a half-maximal effect (EC50) in experiment [2] (setting [4]) worked out at 1 nM.

`COCCN1CCN(Cc2cn(Cc3ccc(F)cc3)c3cnc4c(c23)CCN(O)C4=O)CC1` [Example 49, 3-(4-fluorobenzyl)-7-hydroxy-1-{[4-(2-methoxyethyl)piperazin-1-yl]methyl}-3,7,8,9-tetrahydro-6H-pyrrolo[2,3-c]-1,7-naphthyridin-6-one]: in experiment [1] (setting [3]), the IC50 worked out at 16.2 nM. Further, in experiment [2] (setting [4]), the EC50 is 3.2 nM.

Turning to `CN(Cc1cn(Cc2ccc(F)cc2)c2cnc3c(c12)CCN(O)C3=O)C1CCCOC1` (stereo not shown) [Example 50, 3-(4-fluorobenzyl)-7-hydroxy-1-{[methyl(tetrahydro-2H-pyran-3-yl)amino]methyl}-3,7,8,9-tetrahydro-6H-pyrrolo[2,3-c]-1,7-naphthyridin-6-one], the IC50 in experiment [1] (setting [3]) is 11.9 nM. In addition, the EC50 in experiment [2] (setting [4]) is 1.8 nM.

As to `CCOCCCOCc1cn(Cc2ccc(F)cc2)c2cnc3c(c12)CCN(O)C3=O` [Example 51, 1-[(3-ethoxypropoxy)methyl]-3-(4-fluorobenzyl)-7-hydroxy-3,7,8,9-tetrahydro-6H-pyrrolo[2,3-c]-1,7-naphthyridin-6-one hydrochloride], the IC50 in experiment [1] (setting [3]) came out at 17 nM. The response in experiment [2] (setting [5]) was half-maximal at 0.4 nM (EC50).

Consider `O=C1c2ncc3c(c(Cl)cn3Cc3ccc(F)cc3)c2CCN1O` [Example 52, 1-chloro-3-(4-fluorobenzyl)-7-hydroxy-3,7,8,9-tetrahydro-6H-pyrrolo[2,3-c]-1,7-naphthyridin-6-one], for which the IC50 in experiment [1] (setting [3]) is 19 nM. Moreover, in experiment [2] (setting [4]), the EC50 was determined as 0.91 nM.

Take `N#Cc1cn(Cc2ccc(F)cc2)c2cnc3c(c12)CCN(O)C3=O` [Example 54, 3-(4-fluorobenzyl)-7-hydroxy-6-oxo-6,7,8,9-tetrahydro-3H-pyrrolo[2,3-c]-1,7-naphthyridine-1-carbonitrile]: in experiment [1] (setting [3]), the IC50 was 20 nM. Further, the half-maximal effective concentration (EC50) in experiment [2] (setting [4]) was found to be 6.6 nM.

On to `CC(C)COCc1cn(Cc2ccc(F)cc2)c2cnc3c(c12)CCN(O)C3=O` [Example 56, 3-(4-fluorobenzyl)-7-hydroxy-1-(isobutoxymethyl)-3,7,8,9-tetrahydro-6H-pyrrolo[2,3-c]-1,7-naphthyridin-6-one], for which the IC50 in experiment [1] (setting [3]) was 11 nM. Besides, in experiment [2] (setting [4]), the EC50 was 0.32 nM.

As for `O=C1c2ncc3c(c(COCCOCc4ccccc4)cn3Cc3ccc(F)cc3)c2CCN1O` [Example 57, 1-{[2-(benzyloxy)ethoxy]methyl}-3-(4-fluorobenzyl)-7-hydroxy-3,7,8,9-tetrahydro-6H-pyrrolo[2,3-c]-1,7-naphthyridin-6-one], the IC50 in experiment [1] (setting [3]) amounted to 12 nM. Also, the EC50 in experiment [2] (setting [4]) was 0.69 nM.

Turning to `CC(C)COCCOCc1cn(Cc2ccc(F)cc2)c2cnc3c(c12)CCN(O)C3=O` [Example 58, 3-(4-fluorobenzyl)-7-hydroxy-1-[(2-isobutoxyethoxy)methyl]-3,7,8,9-tetrahydro-6H-pyrrolo[2,3-c]-1,7-naphthyridin-6-one], the IC50 in experiment [1] (setting [3]) came out at 16 nM. The EC50 in experiment [2] (setting [4]) was 0.52 nM.

In the case of `CCCCOCCOCc1cn(Cc2ccc(F)cc2)c2cnc3c(c12)CCN(O)C3=O` [Example 59], in experiment [1] (setting [3]), the IC50 turned out to be 16 nM. The EC50 in experiment [2] (setting [4]) came to 4.9 nM.

On to `CCCCOCc1cn(Cc2ccc(F)cc2)c2cnc3c(c12)CCN(O)C3=O` [Example 60, 1-(butoxymethyl)-3-(4-fluorobenzyl)-7-hydroxy-3,7,8,9-tetrahydro-6H-pyrrolo[2,3-c]-1,7-naphthyridin-6-one], for which the IC50 in experiment [1] (setting [3]) stood at 12 nM. For the same molecule, in experiment [2] (setting [4]), the EC50 is 0.39 nM.

For `O=C1c2ncc3c(c(Br)cn3Cc3ccc(F)cc3)c2CCN1O` [Example 61, 1-bromo-3-(4-fluorobenzyl)-7-hydroxy-3,7,8,9-tetrahydro-6H-pyrrolo[2,3-c]-1,7-naphthyridin-6-one], in experiment [1] (setting [3]), the IC50 turned out to be 17 nM. The EC50 in experiment [2] (setting [4]) was 0.32 nM.

On to `CC(=O)CCCOCc1cn(Cc2ccc(F)cc2)c2cnc3c(c12)CCN(O)C3=O` [Example 63, 3-(4-fluorobenzyl)-7-hydroxy-1-{[(4-oxopentyl)oxy]methyl}-3,7,8,9-tetrahydro-6H-pyrrolo[2,3-c]-1,7-naphthyridin-6-one], for which the IC50 in experiment [1] (setting [3]) came out at 10 nM. Moreover, the EC50 in experiment [2] (setting [4]) turned out to be 3 nM.

`Cc1ncccc1COCc1cn(Cc2ccc(F)cc2)c2cnc3c(c12)CCN(O)C3=O` [Example 64, 3-(4-fluorobenzyl)-7-hydroxy-1-{[(2-methylpyridin-3-yl)methoxy]methyl}-3,7,8,9-tetrahydro-6H-pyrrolo[2,3-c]-1,7-naphthyridin-6-one]: in experiment [1] (setting [3]), the IC50 worked out at 9 nM. In addition, in experiment [2] (setting [4]), the EC50 came out at 1 nM.

For the molecule `COc1cccc(CCOCc2cn(Cc3ccc(F)cc3)c3cnc4c(c23)CCN(O)C4=O)c1` [Example 66], in experiment [1] (setting [3]), the IC50 stood at 13 nM. Further, the EC50 in experiment [2] (setting [4]) came to 1 nM.

As for `O=C1c2ncc3c(c(COCCOc4ccccc4)cn3Cc3ccc(F)cc3)c2CCN1O` [Example 67, 3-(4-fluorobenzyl)-7-hydroxy-1-[(2-phenoxyethoxy)methyl]-3,7,8,9-tetrahydro-6H-pyrrolo[2,3-c]-1,7-naphthyridin-6-one], in experiment [1] (setting [3]), the IC50 came to 15 nM. Also, the EC50 in experiment [2] (setting [4]) was 1 nM.

In the case of `CC(=O)c1cn(Cc2ccc(F)cc2)c2cnc3c(c12)CCN(O)C3=O` [Example 68, 1-acetyl-3-(4-fluorobenzyl)-7-hydroxy-3,7,8,9-tetrahydro-6H-pyrrolo[2,3-c]-1,7-naphthyridin-6-one-methane (1:1)], the IC50 in experiment [1] (setting [3]) stood at 12 nM. Moreover, the EC50 in experiment [2] (setting [5]) is 3 nM.

On to `O=C1c2ncc3c(c(CNC4CCOCC4)cn3Cc3ccc(F)cc3)c2CCN1O` [Example 69, 3-(4-fluorobenzyl)-7-hydroxy-1-[(tetrahydro-2H-pyran-4-ylamino)methyl]-3,7,8,9-tetrahydro-6H-pyrrolo[2,3-c]-1,7-naphthyridin-6-one], for which the IC50 in experiment [1] (setting [3]) was determined as 20 nM. For the same molecule, in experiment [2] (setting [4]), the EC50 came out at 27 nM.
